{
  "source": "patent US20180092923A1",
  "about": "“METHODS FOR TREATING LYSOSOMAL STORAGE DISORDERS” (BIOMARIN PHARMACEUTICAL INC., priority 2015, published 2018)",
  "tested_on": "GM01896 cells",
  "assay": "MPS II cellular assay",
  "format": "cell-based",
  "conditions": "Homo sapiens, Fibroblast; dermal fibroblasts from an individual with MPS II (GM01896); heparan sulfate disaccharide I2a4, I2a6, I2S0 and/or I2S6 detected by LC-MS",
  "method": "Dermal fibroblasts from humans with an MPS disorder and from healthy donors were grown. Cells were expanded and kept in culture for analysis.\nHuman foreskin fibroblasts are obtained from the American Type Culture Collection (CRL-1634). […] Sulfamidase activity in cell extracts is measured with 4-methylumbelliferyl-α-D-N-sulfoglucosaminide according the vendors instructions substituting Tris-acetate buffer (pH 6.5; Moscerdam). […]\nCell monolayers are washed with phosphate buffered saline and detached by treatment with GIBCO trypsin-EDTA solution (Invitrogen). […] The amount of protein is determined by bicinchoninic acid (BCA assay, Thermo Scientific). […]\nEnzymatically depolymerized GAG preparations are differentially mass labeled by reductive amination with [^12C6]aniline. […] Samples are then analyzed by LC-MS using an LTQ Orbitrap Discovery electrospray ionization mass spectrometer (Thermo Scientific) equipped with quaternary HPLC pump (Finnigan Surveyor MS pump) and a reverse-phase capillary column.\nFor MPS II, GM01896 cells were treated with a compound described herein and the heparan sulfate disaccharide detected was [^12C6]aniline-tagged I2a4, I2a6, I2S0 and/or I2S6. […] Cell viability was monitored using alamar blue or ATP quantification. IC50's were calculated using curve fitting within the ChemInnovation CBIS database system.",
  "data": [
    {"smiles": "Cc1cccc(/C=N/Nc2cc(N3CCOCC3)nc(OCCc3ccccn3)n2)c1", "note": "[Compound 11, (E)-4-(6-(2-(3-methylbenzylidene)hydrazinyl)-2-(2-(pyridin-2-yl)ethoxy)pyrimidin-4-yl)morpholine]", "values": [
      {"measurement": "IC50", "result": 170, "unit": "nM"}
    ]}
  ]
}
